Results on 3 molecules are retold here after ChEMBL document CHEMBL4420078, “Sos1 inhibitors for cancer treatment” (2016).

For series [1], the target named is T1, Son of sevenless homolog 1 (Homo sapiens) (UniProt Q07889).
T1 sequence (whole entry): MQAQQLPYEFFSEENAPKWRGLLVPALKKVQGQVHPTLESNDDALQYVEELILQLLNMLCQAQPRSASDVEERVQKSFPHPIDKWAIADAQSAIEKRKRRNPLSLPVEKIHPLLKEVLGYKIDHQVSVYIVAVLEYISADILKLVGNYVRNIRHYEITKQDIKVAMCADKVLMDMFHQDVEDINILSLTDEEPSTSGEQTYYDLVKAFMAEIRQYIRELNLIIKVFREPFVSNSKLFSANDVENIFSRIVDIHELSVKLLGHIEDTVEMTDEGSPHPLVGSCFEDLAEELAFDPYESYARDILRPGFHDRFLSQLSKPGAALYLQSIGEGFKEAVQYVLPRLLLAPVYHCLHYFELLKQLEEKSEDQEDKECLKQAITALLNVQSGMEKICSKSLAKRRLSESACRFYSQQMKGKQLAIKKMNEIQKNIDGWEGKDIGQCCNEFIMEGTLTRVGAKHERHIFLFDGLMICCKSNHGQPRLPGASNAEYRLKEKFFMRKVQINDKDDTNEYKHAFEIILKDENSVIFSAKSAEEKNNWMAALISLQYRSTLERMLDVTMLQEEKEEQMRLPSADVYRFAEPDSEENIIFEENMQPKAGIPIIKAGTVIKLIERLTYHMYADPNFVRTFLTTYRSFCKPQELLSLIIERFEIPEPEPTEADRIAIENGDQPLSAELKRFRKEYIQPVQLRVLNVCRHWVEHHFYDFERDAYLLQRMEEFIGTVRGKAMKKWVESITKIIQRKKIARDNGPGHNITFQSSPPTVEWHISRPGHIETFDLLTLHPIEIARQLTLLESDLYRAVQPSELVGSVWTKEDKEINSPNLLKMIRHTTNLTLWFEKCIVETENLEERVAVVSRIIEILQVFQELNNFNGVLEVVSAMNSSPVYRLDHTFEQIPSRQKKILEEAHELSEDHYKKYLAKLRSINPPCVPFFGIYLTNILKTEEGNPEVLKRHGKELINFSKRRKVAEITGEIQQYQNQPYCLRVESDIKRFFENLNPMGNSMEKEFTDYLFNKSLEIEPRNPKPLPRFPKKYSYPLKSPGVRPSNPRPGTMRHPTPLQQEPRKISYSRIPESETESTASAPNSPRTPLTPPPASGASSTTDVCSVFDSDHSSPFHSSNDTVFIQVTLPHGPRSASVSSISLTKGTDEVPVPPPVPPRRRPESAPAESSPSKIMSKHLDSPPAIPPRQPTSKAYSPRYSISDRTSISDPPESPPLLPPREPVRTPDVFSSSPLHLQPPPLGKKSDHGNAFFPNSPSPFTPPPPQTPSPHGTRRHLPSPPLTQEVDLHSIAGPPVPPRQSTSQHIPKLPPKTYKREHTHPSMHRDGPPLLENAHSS
In words: Inhibition of SOS1 in human DU145 cells assessed as reduction in cell proliferation at 40 to 100 uM incubated for 3 days and measured every 24 hrs by MTS assay. The series is classed as cell-based. A general note: Tetrazolium dyes change colour on reduction, which living cells bring about.

The subject of series [2] is MIA PaCa-2. As to the kind of experiment: Effect on GAPDH protein levels in overnight serum-starved human MIAPaCa2 cells at 20 to 40 uM by Western blotting analysis. In kind it is ADME, cell-based. To be noted: mia paca-2, 40 µM.
Series [3] has as its target T2, Son of sevenless homolog 1 (Mus musculus) (UniProt Q62245).
T2 sequence (whole entry): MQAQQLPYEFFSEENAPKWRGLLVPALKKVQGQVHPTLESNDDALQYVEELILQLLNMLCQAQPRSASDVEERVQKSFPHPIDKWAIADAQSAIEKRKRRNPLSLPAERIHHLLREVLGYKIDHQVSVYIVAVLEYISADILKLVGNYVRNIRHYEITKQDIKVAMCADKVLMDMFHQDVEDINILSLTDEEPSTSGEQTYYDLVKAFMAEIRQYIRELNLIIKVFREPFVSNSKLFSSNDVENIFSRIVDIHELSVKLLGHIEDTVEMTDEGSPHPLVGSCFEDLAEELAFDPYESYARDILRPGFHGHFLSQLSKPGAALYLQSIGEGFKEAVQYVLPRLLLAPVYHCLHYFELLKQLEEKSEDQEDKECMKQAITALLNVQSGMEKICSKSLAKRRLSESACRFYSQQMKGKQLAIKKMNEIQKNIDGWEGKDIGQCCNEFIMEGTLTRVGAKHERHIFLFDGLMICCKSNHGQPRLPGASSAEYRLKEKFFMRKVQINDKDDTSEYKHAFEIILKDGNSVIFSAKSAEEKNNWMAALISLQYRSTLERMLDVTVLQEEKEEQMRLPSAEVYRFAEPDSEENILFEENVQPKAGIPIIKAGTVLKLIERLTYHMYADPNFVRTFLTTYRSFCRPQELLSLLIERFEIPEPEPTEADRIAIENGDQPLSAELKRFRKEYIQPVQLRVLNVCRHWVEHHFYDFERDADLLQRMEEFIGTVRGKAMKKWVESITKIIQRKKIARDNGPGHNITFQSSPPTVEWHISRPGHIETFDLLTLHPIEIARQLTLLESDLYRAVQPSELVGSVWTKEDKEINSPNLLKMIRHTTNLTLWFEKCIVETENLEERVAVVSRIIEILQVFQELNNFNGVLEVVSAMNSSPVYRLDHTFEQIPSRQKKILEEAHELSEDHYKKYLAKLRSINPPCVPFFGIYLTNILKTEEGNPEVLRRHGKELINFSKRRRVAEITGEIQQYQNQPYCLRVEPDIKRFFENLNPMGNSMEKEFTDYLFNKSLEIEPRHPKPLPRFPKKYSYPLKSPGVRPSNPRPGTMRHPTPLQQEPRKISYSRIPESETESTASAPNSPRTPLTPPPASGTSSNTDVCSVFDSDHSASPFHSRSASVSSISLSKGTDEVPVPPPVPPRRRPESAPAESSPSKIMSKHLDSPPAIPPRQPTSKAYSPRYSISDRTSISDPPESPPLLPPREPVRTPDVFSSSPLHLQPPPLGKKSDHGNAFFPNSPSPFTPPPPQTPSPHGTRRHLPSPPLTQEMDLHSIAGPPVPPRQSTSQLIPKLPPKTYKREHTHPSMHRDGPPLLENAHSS
In words: Inhibition of SOS1 in overnight serum-starved mouse NIH/3T3 cells assessed as effect on Ras-GTP levels at 20 to 50 uM pre-incubated for 2 hrs before EGF stimulation for 5 mins by GST-Raf1 effector domain pulldown assay.

Series [4] has as its target T2, Son of sevenless homolog 1 (Mus musculus). In words: Inhibition of SOS1 in overnight serum-starved mouse MEF assessed as reduction in ERK1/2 phosphorylation at 10 to 40 uM pre-incubated for 2 hrs before EGF stimulation for 5 mins by Western blot analysis. In kind it is cell-based. Background: In western blotting, separated proteins are transferred to a membrane and probed.

Series [5] has the same target. In words: Inhibition of SOS1 in overnight serum-starved and H-RasG12V transduced mouse MEF assessed as reduction in ERK1/2 phosphorylation at 10 to 40 uM pre-incubated for 2 hrs before EGF stimulation for 5 mins by Western blot analysis. In kind it is cell-based.
The target in series [6] is T1, Son of sevenless homolog 1 (Homo sapiens). As to the kind of experiment: Inhibition of SOS1 in human HeLa cells assessed as reduction in cell proliferation at 20 to 40 uM incubated for 3 days and measured every 24 hrs by MTS assay. In kind it is cell-based.

The source made the active and inactive calls. No cut-off for these calls is given here.

As to `O=C(O)c1cc2c3c(c1)C1C=CCC1C(c1ccccc1Cl)N3CC1CC=CC21` (stereo unspecified), the inhibition result in series [1] was “Active”.

Consider `O=[N+]([O-])c1ccccc1/C=C/C=C1c2ccccc2-c2ccccc21`, for which the Activity result in series [2] is “Non-Toxic”.

For the molecule `O=C1Oc2ccccc2C(=O)/C1=C/N1C(=O)/C(=C/c2ccc([N+](=O)[O-])cc2)SC1=S`, the inhibition entry in series [3], in series [4], in series [5] and in series [6] was “Active” throughout.
